Experimental data: patent publication US8937088B2, “Ureas for the treatment and prevention of cancer” (Astar Biotech LLC, priority 2011, dated 2015)
Read-outs that look alike come from different tables or passages of the source. Each block holds one compound with its values, some of them ahead of it.

What was measured:
[1] = system: HepG2 (human Hepatocellular carcinoma cell line); test: Cell death detection, trypan blue exclusion assay, HepG2; type: cell-based; conditions: HepG2, 5-day treatment
Method: (§1) Biological Test 2. Cell Death Detection Using Trypan Blue Exclusion Assay.
(§2) After drug treatment, cells were harvested by trypsinization with trypsin/EDTA for 10 min at 37° C. As some apoptotic cells detached from the culture substratum into the medium, these cells were also collected by centrifugation of the medium at 1,200 rpm for 5 min. The pooled cell pellets were resuspended and mixed with trypan blue dye. After Trypan blue stain was done, cells were counted by using a light microscope and a hemocytometer. Blue dye-incorporating cells were scored as being dead. Five hundred cells from randomly chosen fields were counted, and the number of dead cells was counted and expressed as a percentage of the total number of cells counted as shown in Tables 2 to 8 below.

[2] = system: HUH7 (human hepatoma cell line); test: Cell death detection, trypan blue exclusion assay, HUH7, in combination with AZD-6244; type: cell-based; conditions: HUH7, 6-day treatment, compound 0.5 μM
Method: as §1, §2

[3] = system: HT29 (human colon adenocarcinoma cell line); test: Cell death detection, trypan blue exclusion assay, HT29; type: cell-based; conditions: HT29, 5-day treatment
Method: as §1, §2

[4] = system: Hep3B (human hepatoma cell line); test: Cell death detection, trypan blue exclusion assay, Hep3B; type: cell-based; conditions: 5-day treatment
Method: as §1, §2

[5] = system: LNCaP (human prostate adenocarcinoma cell line); test: Cell death detection, trypan blue exclusion assay, LNCaP; type: cell-based; conditions: read-out: Cell Death (%) at Tested Concentration
Method: as §1, §2

[6] = system: patient-derived primary squamous lung 14531 tumor; test: In vivo activity in SCID mouse model with lung cancer, 30-day treatment; conditions: patient-derived primary squamous lung 14531 tumor in mouse, compared to the control
From the text: Biological Test 4. In Vivo Activity in […] SCID Mouse Model with Lung Cancer
Biological Test 5. In Vivo Activity in Senograph SCID Mouse Model with Lung Cancer

[7] = system: HUH7 (human hepatoma cell line); test: Cell death detection, trypan blue exclusion assay, HUH7; type: cell-based; conditions: Huh-7, 168 h, HUH7, 7-day treatment, read-out: Cell Death (%) at Tested Concentration
Method: as §1, §2

BRAF = BRAF (Homo sapiens, UniProt P15056); test: In vitro kinase assay (Invitrogen SelectScreen Profiling Service), BRAF; type: biochemical
Sequence of BRAF (P15056 whole entry): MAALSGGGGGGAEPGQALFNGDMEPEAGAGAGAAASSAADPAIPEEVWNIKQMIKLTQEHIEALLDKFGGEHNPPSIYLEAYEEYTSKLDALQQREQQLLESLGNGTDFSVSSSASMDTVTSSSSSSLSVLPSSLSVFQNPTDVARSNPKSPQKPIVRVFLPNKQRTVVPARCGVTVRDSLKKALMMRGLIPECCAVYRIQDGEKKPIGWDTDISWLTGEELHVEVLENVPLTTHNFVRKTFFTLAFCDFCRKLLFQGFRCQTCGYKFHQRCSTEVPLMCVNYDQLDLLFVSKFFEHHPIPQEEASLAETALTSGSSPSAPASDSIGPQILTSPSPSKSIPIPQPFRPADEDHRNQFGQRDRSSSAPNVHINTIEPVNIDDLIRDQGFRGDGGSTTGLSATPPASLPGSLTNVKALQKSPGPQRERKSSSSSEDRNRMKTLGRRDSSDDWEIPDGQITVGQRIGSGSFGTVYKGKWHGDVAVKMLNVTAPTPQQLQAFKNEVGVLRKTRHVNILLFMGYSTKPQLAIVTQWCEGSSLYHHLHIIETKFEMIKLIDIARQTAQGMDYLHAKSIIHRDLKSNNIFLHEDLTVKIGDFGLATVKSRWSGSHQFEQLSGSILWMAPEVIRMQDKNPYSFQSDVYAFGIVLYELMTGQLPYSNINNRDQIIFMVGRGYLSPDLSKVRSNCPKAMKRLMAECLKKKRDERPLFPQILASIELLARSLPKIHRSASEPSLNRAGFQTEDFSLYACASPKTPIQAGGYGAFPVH
Method: (§3) Biological Test 1. In Vitro Kinase Assay for BRAF, FLT3 and KDR(VEGFR2) The inhibitory activities of the compounds of the invention were measured by Invitrogen's SelectScreen® Profiling Service.

FLT3 = target: T1, FLT3 (Homo sapiens, UniProt P36888); test: In vitro kinase assay (Invitrogen SelectScreen Profiling Service), FLT3; type: biochemical; conditions: FLT3, 0.1 μM
T1 sequence (P36888 27-993): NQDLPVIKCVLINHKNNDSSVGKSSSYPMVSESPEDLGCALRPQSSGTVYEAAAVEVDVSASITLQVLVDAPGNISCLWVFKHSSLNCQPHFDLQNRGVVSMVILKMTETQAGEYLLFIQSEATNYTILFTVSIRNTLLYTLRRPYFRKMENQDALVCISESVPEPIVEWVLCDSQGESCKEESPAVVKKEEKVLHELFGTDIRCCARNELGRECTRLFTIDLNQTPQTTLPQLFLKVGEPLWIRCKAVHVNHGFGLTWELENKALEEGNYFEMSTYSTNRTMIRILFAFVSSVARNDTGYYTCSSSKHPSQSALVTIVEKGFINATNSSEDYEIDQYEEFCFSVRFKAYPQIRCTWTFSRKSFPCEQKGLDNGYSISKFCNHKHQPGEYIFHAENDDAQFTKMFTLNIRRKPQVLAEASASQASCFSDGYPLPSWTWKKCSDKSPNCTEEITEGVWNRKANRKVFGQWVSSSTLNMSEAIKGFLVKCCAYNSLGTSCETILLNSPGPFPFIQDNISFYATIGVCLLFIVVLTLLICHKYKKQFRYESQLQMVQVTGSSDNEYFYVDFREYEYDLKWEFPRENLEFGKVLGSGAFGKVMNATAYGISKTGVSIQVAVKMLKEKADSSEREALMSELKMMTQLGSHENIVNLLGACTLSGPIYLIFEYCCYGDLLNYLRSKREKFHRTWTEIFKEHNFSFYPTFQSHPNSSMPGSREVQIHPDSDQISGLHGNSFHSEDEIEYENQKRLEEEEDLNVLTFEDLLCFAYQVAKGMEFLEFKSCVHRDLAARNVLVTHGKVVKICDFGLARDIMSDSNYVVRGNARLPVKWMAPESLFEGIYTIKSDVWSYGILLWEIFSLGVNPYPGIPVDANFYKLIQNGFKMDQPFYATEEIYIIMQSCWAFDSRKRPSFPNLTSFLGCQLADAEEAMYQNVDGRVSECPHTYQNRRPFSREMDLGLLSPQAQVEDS
Method: as §3

KDR(VEGFR2) = KDR(VEGFR2) (Homo sapiens, UniProt P35968); test: In vitro kinase assay (Invitrogen SelectScreen Profiling Service), KDR; type: biochemical
Sequence of KDR(VEGFR2) (P35968 20-1356): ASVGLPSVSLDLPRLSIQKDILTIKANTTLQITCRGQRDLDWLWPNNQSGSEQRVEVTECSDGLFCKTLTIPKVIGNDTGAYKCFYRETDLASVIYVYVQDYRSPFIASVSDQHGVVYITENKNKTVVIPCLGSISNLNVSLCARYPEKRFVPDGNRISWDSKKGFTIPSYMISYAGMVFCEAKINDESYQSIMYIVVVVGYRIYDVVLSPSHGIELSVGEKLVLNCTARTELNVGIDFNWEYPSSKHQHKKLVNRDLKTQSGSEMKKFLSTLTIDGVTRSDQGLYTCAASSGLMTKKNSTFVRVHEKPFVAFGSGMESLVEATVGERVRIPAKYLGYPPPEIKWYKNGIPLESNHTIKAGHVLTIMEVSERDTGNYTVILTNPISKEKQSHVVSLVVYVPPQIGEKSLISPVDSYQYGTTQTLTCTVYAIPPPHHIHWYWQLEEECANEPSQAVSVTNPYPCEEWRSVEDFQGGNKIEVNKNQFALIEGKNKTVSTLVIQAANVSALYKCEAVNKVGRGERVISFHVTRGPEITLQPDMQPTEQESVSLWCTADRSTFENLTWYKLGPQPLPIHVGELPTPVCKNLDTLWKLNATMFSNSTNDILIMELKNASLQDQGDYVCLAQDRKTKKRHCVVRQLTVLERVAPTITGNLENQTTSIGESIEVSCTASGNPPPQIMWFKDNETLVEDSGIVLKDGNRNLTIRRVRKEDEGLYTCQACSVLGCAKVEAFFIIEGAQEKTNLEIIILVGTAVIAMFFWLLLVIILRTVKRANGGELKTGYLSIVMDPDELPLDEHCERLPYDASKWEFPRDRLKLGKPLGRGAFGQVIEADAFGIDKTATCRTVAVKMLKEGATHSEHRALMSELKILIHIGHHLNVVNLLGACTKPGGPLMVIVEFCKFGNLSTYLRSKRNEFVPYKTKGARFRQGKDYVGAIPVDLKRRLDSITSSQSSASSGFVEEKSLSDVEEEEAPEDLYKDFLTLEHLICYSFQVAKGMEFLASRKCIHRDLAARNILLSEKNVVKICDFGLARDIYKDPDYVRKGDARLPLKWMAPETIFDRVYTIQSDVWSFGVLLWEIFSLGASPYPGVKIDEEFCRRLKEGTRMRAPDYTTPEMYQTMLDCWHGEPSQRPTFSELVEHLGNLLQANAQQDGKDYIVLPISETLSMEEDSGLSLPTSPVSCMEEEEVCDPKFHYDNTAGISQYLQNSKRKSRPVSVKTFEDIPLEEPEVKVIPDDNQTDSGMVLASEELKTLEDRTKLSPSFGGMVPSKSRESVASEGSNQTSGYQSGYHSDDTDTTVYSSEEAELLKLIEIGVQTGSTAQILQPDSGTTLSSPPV
Method: as §3

Compound: CNC(=O)c1cc(Oc2ccc(NC(=O)Nc3ccc(Cl)c(C(F)(F)F)c3)cc2)ccn1 [Sorafenib, reference compound]
Cell Death (%) at Tested Concentration ([1]; 0.25 uM): 2.2%
Cell Death (%) at Tested Concentration ([1]; 3.0 uM): 6.4%
Cell Death (%) at Tested Concentration ([1]; 5.0 uM): 8.2%
Cell Death (%) in combination with AZD-6244 ([2]; AZD-6244 0 μM): 1.9%
Cell Death (%) in combination with AZD-6244 ([2]; AZD-6244 0.5 μM): 97.3%
Cell Death (%) at Tested Concentration ([3]; 2.5 uM): 11.6%
Cell Death (%) at Tested Concentration ([3]; 5.0 uM): 14.3%
Cell Death (%) at Tested Concentration ([3]; 10 uM): 27.6%
Cell Death (%) at Tested Concentration ([4]; 0.25 uM): 3.0%
Cell Death (%) at Tested Concentration ([4]; 3.0 uM): 12.5%
Cell Death (%) at Tested Concentration ([4]; 5.0 uM): 88.2%
cytotoxicity at 1 µM ([5]; 72 h, 3-day treatment): 1.6%
cytotoxicity at 2.5 µM ([5]; 72 h, 3-day treatment): 1.7%
cytotoxicity at 5 µM ([5]; 72 h, 3-day treatment): 2.3%
cytotoxicity at 7.5 µM ([5]; 72 h, 3-day treatment): 2.4%
cytotoxicity at 10 µM ([5]; 72 h, 3-day treatment): 81.3%
cytotoxicity at 1 µM ([5]; 168 h, 7-day treatment): 1.6%
cytotoxicity at 2.5 µM ([5]; 168 h, 7-day treatment): 1.6%
cytotoxicity at 5 µM ([5]; 168 h, 7-day treatment): 2.8%
cytotoxicity at 7.5 µM ([5]; 168 h, 7-day treatment): 14.7%
cytotoxicity at 10 µM ([5]; 168 h, 7-day treatment): 99%
effect in reducing the tumor volume [6]: significant effect in reducing the tumor volume

inhibition at 0.1 µM (BRAF): 11%
inhibition at 0.1 µM (FLT3): 72%
inhibition at 0.1 µM (KDR(VEGFR2)): 64%
Compound: CNC(=O)c1cc(Oc2ccc(NC(=O)Nc3ccc(Cl)c(S(F)(F)(F)(F)F)c3)cc2)ccn1 [Example 3, 4-[4-({[4-chloro-3-(pentafluoro-λ^6-sulfanyl)phenyl]carbamoyl}amino)phenoxy]-N-methylpyridine-2-carboxamide]
cytotoxicity at 1 µM [7]: 2.7%
cytotoxicity at 2.5 µM [7]: 4.5%
cytotoxicity at 5 µM [7]: 53.8%
cytotoxicity at 7.5 µM [7]: 79.6%
cytotoxicity at 10 µM [7]: 87.6%
Cell Death (%) at Tested Concentration ([1]; 0.25 uM): 2.7%
Cell Death (%) at Tested Concentration ([1]; 3.0 uM): 4.2%
Cell Death (%) at Tested Concentration ([1]; 5.0 uM): 14.6%
Cell Death (%) in combination with AZD-6244 ([2]; AZD-6244 0 μM): 1.9%
Cell Death (%) in combination with AZD-6244 ([2]; AZD-6244 0.5 μM): 94.6%
Cell Death (%) at Tested Concentration ([3]; 2.5 uM): 11.4%
Cell Death (%) at Tested Concentration ([3]; 5.0 uM): 16.7%
Cell Death (%) at Tested Concentration ([3]; 10 uM): 30.7%
Cell Death (%) at Tested Concentration ([4]; 0.25 uM): 3.3%
Cell Death (%) at Tested Concentration ([4]; 3.0 uM): 25.6%
Cell Death (%) at Tested Concentration ([4]; 5.0 uM): 90.7%
cytotoxicity at 1 µM ([5]; 72 h, 3-day treatment): 1.3%
cytotoxicity at 2.5 µM ([5]; 72 h, 3-day treatment): 1.9%
cytotoxicity at 5 µM ([5]; 72 h, 3-day treatment): 4.3%
cytotoxicity at 7.5 µM ([5]; 72 h, 3-day treatment): 13.4%
cytotoxicity at 10 µM ([5]; 72 h, 3-day treatment): 91.8%
cytotoxicity at 1 µM ([5]; 168 h, 7-day treatment): 2.3%
cytotoxicity at 2.5 µM ([5]; 168 h, 7-day treatment): 2.8%
cytotoxicity at 5 µM ([5]; 168 h, 7-day treatment): 99%
cytotoxicity at 7.5 µM ([5]; 168 h, 7-day treatment): 99%
cytotoxicity at 10 µM ([5]; 168 h, 7-day treatment): 99%

inhibition at 0.1 µM (BRAF): 14%
inhibition at 0.1 µM (FLT3): 71%
inhibition at 0.1 µM (KDR(VEGFR2)): 76%
Compound: CNC(=O)c1cc(Oc2ccc(NC(=O)Nc3cccc(S(F)(F)(F)(F)F)c3)c(F)c2)ccn1 [Example 2, 4-[3-fluoro-4-({[3-(pentafluoro-λ^6-sulfanyl)phenyl]carbamoyl}amino)phenoxy]-N-methylpyridine-2-carboxamide]
cytotoxicity at 1 µM [7]: 2.4%
cytotoxicity at 2.5 µM [7]: 7.3%
cytotoxicity at 5 µM [7]: 42.6%
cytotoxicity at 7.5 µM [7]: 72.6%
cytotoxicity at 10 µM [7]: 75.2%
Cell Death (%) at Tested Concentration ([1]; 0.25 uM): 2.2%
Cell Death (%) at Tested Concentration ([1]; 3.0 uM): 94.7%
Cell Death (%) at Tested Concentration ([1]; 5.0 uM): 99%
Cell Death (%) in combination with AZD-6244 ([2]; AZD-6244 0 μM): 3.6%
Cell Death (%) in combination with AZD-6244 ([2]; AZD-6244 0.5 μM): 99%
Cell Death (%) at Tested Concentration ([3]; 2.5 uM): 12.3%
Cell Death (%) at Tested Concentration ([3]; 5.0 uM): 14.7%
Cell Death (%) at Tested Concentration ([3]; 10 uM): 24.8%
Cell Death (%) at Tested Concentration ([4]; 0.25 uM): 4.1%
Cell Death (%) at Tested Concentration ([4]; 3.0 uM): 92.7%
Cell Death (%) at Tested Concentration ([4]; 5.0 uM): 98.5%
cytotoxicity at 1 µM ([5]; 72 h, 3-day treatment): 1.7%
cytotoxicity at 2.5 µM ([5]; 72 h, 3-day treatment): 1.8%
cytotoxicity at 5 µM ([5]; 72 h, 3-day treatment): 1.6%
cytotoxicity at 7.5 µM ([5]; 72 h, 3-day treatment): 4.2%
cytotoxicity at 10 µM ([5]; 72 h, 3-day treatment): 83.7%
cytotoxicity at 1 µM ([5]; 168 h, 7-day treatment): 1.5%
cytotoxicity at 2.5 µM ([5]; 168 h, 7-day treatment): 2.7%
cytotoxicity at 5 µM ([5]; 168 h, 7-day treatment): 2.5%
cytotoxicity at 7.5 µM ([5]; 168 h, 7-day treatment): 17.3%
cytotoxicity at 10 µM ([5]; 168 h, 7-day treatment): 99%

inhibition at 0.1 µM (BRAF): 18%
inhibition at 0.1 µM (FLT3): 85%
inhibition at 0.1 µM (KDR(VEGFR2)): 79%
Compound: CNC(=O)c1cc(Oc2ccc(NC(=O)Nc3cccc(S(F)(F)(F)(F)F)c3)cc2)ccn1 [Example 1, N-methyl-4-[4-({[3-(pentafluoro-λ^6-sulfanyl)phenyl]carbamoyl}amino)phenoxy]pyridine-2-carboxamide]
cytotoxicity at 1 µM [7]: 2%
cytotoxicity at 2.5 µM [7]: 5.1%
cytotoxicity at 5 µM [7]: 18.3%
cytotoxicity at 7.5 µM [7]: 52.7%
cytotoxicity at 10 µM [7]: 72.3%
Cell Death (%) at Tested Concentration ([1]; 0.25 uM): 2.6%
Cell Death (%) at Tested Concentration ([1]; 3.0 uM): 32.4%
Cell Death (%) at Tested Concentration ([1]; 5.0 uM): 84.5%
Cell Death (%) in combination with AZD-6244 ([2]; AZD-6244 0 μM): 2.3%
Cell Death (%) in combination with AZD-6244 ([2]; AZD-6244 0.5 μM): 99%
Cell Death (%) at Tested Concentration ([3]; 2.5 uM): 12.4%
Cell Death (%) at Tested Concentration ([3]; 5.0 uM): 14.5%
Cell Death (%) at Tested Concentration ([3]; 10 uM): 68.7%
Cell Death (%) at Tested Concentration ([4]; 0.25 uM): 3.8%
Cell Death (%) at Tested Concentration ([4]; 3.0 uM): 22.3%
Cell Death (%) at Tested Concentration ([4]; 5.0 uM): 92.7%
cytotoxicity at 1 µM ([5]; 72 h, 3-day treatment): 1.6%
cytotoxicity at 2.5 µM ([5]; 72 h, 3-day treatment): 1.5%
cytotoxicity at 5 µM ([5]; 72 h, 3-day treatment): 1.3%
cytotoxicity at 7.5 µM ([5]; 72 h, 3-day treatment): 7.3%
cytotoxicity at 10 µM ([5]; 72 h, 3-day treatment): 62.5%
cytotoxicity at 1 µM ([5]; 168 h, 7-day treatment): 1.6%
cytotoxicity at 2.5 µM ([5]; 168 h, 7-day treatment): 2.8%
cytotoxicity at 5 µM ([5]; 168 h, 7-day treatment): 2.8%
cytotoxicity at 7.5 µM ([5]; 168 h, 7-day treatment): 99%
cytotoxicity at 10 µM ([5]; 168 h, 7-day treatment): 99%
